# Measured values reported in US12527800B2, “Therapeutic agent for Parkinson's disease” (KYOWA KIRIN CO., LTD., priority 2019, dated 2026).
# System: patients of Parkinson's disease experiencing motor fluctuations
# Assay: Pooled analysis of phase 2b and phase 3 clinical studies of istradefylline combined with L-DOPA: change from baseline to week 12 and CGI-I at week 12
# Type: in vivo, human
# Conditions: for Mean daily OFF time, change from baseline to week 12: 12 weeks; for Mean daily OFF time, change from baseline to week 12 / Mean daily ON time with dyskinesia, change from baseline to week 12 / Mean daily ON time with non-troublesome dyskinesia, change from baseline to week 12 / Mean daily ON time with troublesome dyskinesia, change from baseline to week 12 / Mean daily ON time without dyskinesia, change from baseline to week 12 / Mean daily ON time without troublesome dyskinesia, change from baseline to week 12 / Mean daily percentage of OFF time, change from baseline to week 12 / Mean daily percentage of ON time with dyskinesia, change from baseline to week 12 / Mean daily percentage of ON time with non-troublesome dyskinesia, change from baseline to week 12 / Mean daily percentage of ON time with troublesome dyskinesia, change from baseline to week 12 / Mean daily percentage of ON time without dyskinesia, change from baseline to week 12 / Mean daily percentage of ON time without troublesome dyskinesia, change from baseline to week 12 / Total UPDRS Parts I-III at ON state, change from baseline to week 12 / UPDRS Part I score, change from baseline to week 12 / UPDRS Part II score OFF state, change from baseline to week 12 / UPDRS Part II score ON state, change from baseline to week 12 / UPDRS Part III score at ON state, change from baseline to week 12 / UPDRS Part IV score, change from baseline to week 12: mean ± SD; for CGI-I Minimally improved, % of patients / CGI-I Minimally improved, number of patients / CGI-I Minimally worse, % of patients / CGI-I Minimally worse, number of patients / CGI-I Much improved, % of patients / CGI-I Much improved, number of patients / CGI-I Much worse, % of patients / CGI-I Much worse, number of patients / CGI-I No change, % of patients / CGI-I No change, number of patients / CGI-I Very much improved, % of patients / CGI-I Very much improved, number of patients / CGI-I Very much worse, % of patients / CGI-I Very much worse, number of patients: week 12
# Description: A pooled analysis was performed for two clinical studies of istradefylline combined with L-DOPA previously conducted in Japan. Both studies were performed according to the principles of the Declaration of Helsinki and were identically designed for 12-week, multicenter, randomized, double-blind, placebo-controlled, and parallel-group studies approved by the relevant institutional review boards of each center [(i) Mizuno Y, Kondo T. Adenosine A2A receptor antagonist istradefylline reduces daily OFF time in Parkinson's disease. Mov Disord 2013; 28: 1138-41, and (ii) Mizuno Y, Hasegawa K, Kondo T, et al. Clinical efficacy of istradefylline (KW-6002) in Parkinson's disease: a randomized, controlled study. Mov Disord 2010; 25(10): 1437-43)]. Both studies were registered in ClinicalTrials.gov (NCT00455507 [phase 2b] and NCT00955526 [phase 3]). Both studies enrolled patients of Parkinson's disease who were experiencing motor fluctuations.
# Key inclusion criteria included age 20 years, stages 2-4 (OFF state) based on the Modified Hoehn and Yahr (mH&Y) scale, stable treatment regimen of antiparkinsonian drugs, and motor fluctuations with an OFF time of 2 hours or longer per day. Key exclusion criteria included history of surgical operation for Parkinson's disease, cognitive impairment, and pregnancy. The study protocols were approved by the institutional review boards at all participating study sites, and written informed consent was obtained from all patients prior to participation.
# In both studies, eligible subjects were randomized to one of three groups: 12-week istradefylline 20 mg/day group, 12-week istradefylline 40 mg/day group, and 12-week placebo group. The subjects attended site visits at weeks 2, 4, 8, and 12 after randomization, and submitted patient diaries covering the 7-day period prior to each visit. The full analysis set included subjects who received at least one dose of study drug and completed at least one set of patient diaries.
# The primary outcomes were changes in OFF time (hours/day) from baseline to 12 weeks obtained from the patient diaries, which were compared between the placebo group and the istradefylline group. Other outcomes included changes (%) in daily OFF time, changes in ON time without troublesome dyskinesia (“Good” ON time) (Hauser RA, Deckers F, Lehert P. Parkinson's disease home diary: further validation and implications for clinical trials. Mov Disord 2004; 19(12): 1409-13), (which was the summation of ON time without dyskinesia and ON time with non-troublesome dyskinesia), UPDRS parts I-IV score, and changes in Clinical Global Impressions-Improvement (CGI-I) score from baseline to 12 weeks. The varying from baseline values, and the treatment effect were determined as a difference in mean change between the placebo group and the istradefylline group during the follow up period.
# Baseline data were summarized for all and respective treatment groups (placebo and istradefylline: 20 mg or 40 mg). Continuous variables were expressed as mean and standard deviation (SD), whereas categorical variables were expressed as proportions. The following statistical analyses were performed for patients without any missing data (listwise deletion or complete case analysis).
# [1] = 20 mg/day, listed as Istradefylline
# [2] = 40 mg/day, listed as Istradefylline
smiles,measurement,setting,value
CCn1c(=O)c2c(nc(/C=C/c3ccc(OC)c(OC)c3)n2C)n(CC)c1=O [istradefylline],"Mean daily OFF time, change from baseline to week 12","20 mg/day, N = 235",significant reductions
same,"Mean daily OFF time, change from baseline to week 12","20 mg/day, N = 235, listed as Istradefylline",-1.23 ± 1.97 h
same,"Mean daily ON time with dyskinesia, change from baseline to week 12",20 mg/day,0.19 ± 1.53 h
same,"Mean daily ON time with non-troublesome dyskinesia, change from baseline to week 12",20 mg/day,significantly increased
same,"Mean daily ON time with troublesome dyskinesia, change from baseline to week 12",20 mg/day,0.03 ± 1.33 h
same,"Mean daily ON time without dyskinesia, change from baseline to week 12",20 mg/day,significantly increased
same,"Mean daily ON time without troublesome dyskinesia, change from baseline to week 12",20 mg/day,significantly increased
same,"Mean daily percentage of OFF time, change from baseline to week 12",20 mg/day,significant reductions
same,"Mean daily percentage of ON time with dyskinesia, change from baseline to week 12",20 mg/day,1.32 ± 9.36%
same,"Mean daily percentage of ON time with non-troublesome dyskinesia, change from baseline to week 12",20 mg/day,significantly increased
same,"Mean daily percentage of ON time with troublesome dyskinesia, change from baseline to week 12",20 mg/day,0.15 ± 8.12%
same,"Mean daily percentage of ON time without dyskinesia, change from baseline to week 12",20 mg/day,significantly increased
same,"Mean daily percentage of ON time without troublesome dyskinesia, change from baseline to week 12",20 mg/day,significantly increased
same,"Total UPDRS Parts I-III at ON state, change from baseline to week 12",20 mg/day,significant reductions
same,"UPDRS Part I score, change from baseline to week 12",20 mg/day,−0.2 ± 0.9
same,"UPDRS Part II score OFF state, change from baseline to week 12",20 mg/day,−1.8 ± 4.1
same,"UPDRS Part II score ON state, change from baseline to week 12",20 mg/day,−0.5 ± 2.3
same,"UPDRS Part III score at ON state, change from baseline to week 12",20 mg/day,significant reductions
same,"UPDRS Part IV score, change from baseline to week 12",20 mg/day,−0.1 ± 1.6
same,"Mean daily ON time with non-troublesome dyskinesia, change from baseline to week 12",[1],0.16 ± 1.56 h
same,"Mean daily ON time without dyskinesia, change from baseline to week 12",[1],1.03 ± 2.20 h
same,"Mean daily ON time without troublesome dyskinesia, change from baseline to week 12",[1],1.19 ± 2.44 h
same,"Mean daily percentage of OFF time, change from baseline to week 12",[1],−7.62 ± 12.62%
same,"Mean daily percentage of ON time with non-troublesome dyskinesia, change from baseline to week 12",[1],1.17 ± 9.54%
same,"Mean daily percentage of ON time without dyskinesia, change from baseline to week 12",[1],6.28 ± 13.68%
same,"Mean daily percentage of ON time without troublesome dyskinesia, change from baseline to week 12",[1],7.45 ± 14.95%
same,"Total UPDRS Parts I-III at ON state, change from baseline to week 12",[1],−5.8 ± 8.6
same,"UPDRS Part III score at ON state, change from baseline to week 12",[1],−5.1 ± 7.2
same,"CGI-I Minimally improved, % of patients",20 mg/day,(36.2) %
same,"CGI-I Minimally improved, number of patients",20 mg/day,85 number of patients
same,"CGI-I Minimally worse, % of patients",20 mg/day,(5.1) %
same,"CGI-I Minimally worse, number of patients",20 mg/day,12 number of patients
same,"CGI-I Much improved, % of patients",20 mg/day,(18.3) %
same,"CGI-I Much improved, number of patients",20 mg/day,43 number of patients
same,"CGI-I Much worse, % of patients",20 mg/day,(1.3) %
same,"CGI-I Much worse, number of patients",20 mg/day,3 number of patients
same,"CGI-I No change, % of patients",20 mg/day,(36.2) %
same,"CGI-I No change, number of patients",20 mg/day,85 number of patients
same,"CGI-I Very much improved, % of patients",20 mg/day,(2.6) %
same,"CGI-I Very much improved, number of patients",20 mg/day,6 number of patients
same,"CGI-I Very much worse, % of patients",20 mg/day,(0.4) %
same,"CGI-I Very much worse, number of patients",20 mg/day,1 number of patients
same,"Mean daily OFF time, change from baseline to week 12","40 mg/day, N = 247",significant reductions
same,"Mean daily OFF time, change from baseline to week 12","40 mg/day, N = 247, listed as Istradefylline",-1.27 ± 2.42 h
same,"Mean daily ON time with dyskinesia, change from baseline to week 12",40 mg/day,0.20 ± 1.93 h
same,"Mean daily ON time with non-troublesome dyskinesia, change from baseline to week 12",40 mg/day,significantly increased
same,"Mean daily ON time with troublesome dyskinesia, change from baseline to week 12",40 mg/day,0.06 ± 1.13 h
same,"Mean daily ON time without dyskinesia, change from baseline to week 12",40 mg/day,significantly increased
same,"Mean daily ON time without troublesome dyskinesia, change from baseline to week 12",40 mg/day,significantly increased
same,"Mean daily percentage of OFF time, change from baseline to week 12",40 mg/day,significant reductions
same,"Mean daily percentage of ON time with dyskinesia, change from baseline to week 12",40 mg/day,1.28 ± 11.40%
same,"Mean daily percentage of ON time with non-troublesome dyskinesia, change from baseline to week 12",40 mg/day,significantly increased
same,"Mean daily percentage of ON time with troublesome dyskinesia, change from baseline to week 12",40 mg/day,0.36 ± 6.44%
same,"Mean daily percentage of ON time without dyskinesia, change from baseline to week 12",40 mg/day,significantly increased
same,"Mean daily percentage of ON time without troublesome dyskinesia, change from baseline to week 12",40 mg/day,significantly increased
same,"Total UPDRS Parts I-III at ON state, change from baseline to week 12",40 mg/day,significant reductions
same,"UPDRS Part I score, change from baseline to week 12",40 mg/day,−0.1 ± 1.0
same,"UPDRS Part II score OFF state, change from baseline to week 12",40 mg/day,significant reductions
same,"UPDRS Part II score ON state, change from baseline to week 12",40 mg/day,−0.7 ± 2.2
same,"UPDRS Part III score at ON state, change from baseline to week 12",40 mg/day,significant reductions
same,"UPDRS Part IV score, change from baseline to week 12",40 mg/day,significant reductions
same,"Mean daily ON time with non-troublesome dyskinesia, change from baseline to week 12",[2],0.15 ± 1.36 h
same,"Mean daily ON time without dyskinesia, change from baseline to week 12",[2],0.99 ± 2.86 h
same,"Mean daily ON time without troublesome dyskinesia, change from baseline to week 12",[2],1.13 ± 2.65 h
same,"Mean daily percentage of OFF time, change from baseline to week 12",[2],−7.76 ± 15.02%
same,"Mean daily percentage of ON time with non-troublesome dyskinesia, change from baseline to week 12",[2],0.92 ± 8.26%
same,"Mean daily percentage of ON time without dyskinesia, change from baseline to week 12",[2],6.46 ± 17.10%
same,"Mean daily percentage of ON time without troublesome dyskinesia, change from baseline to week 12",[2],7.39 ± 15.73%
same,"Total UPDRS Parts I-III at ON state, change from baseline to week 12",[2],−6.3 ± 8.1
same,"UPDRS Part II score OFF state, change from baseline to week 12",[2],−2.0 ± 3.8
same,"UPDRS Part III score at ON state, change from baseline to week 12",[2],−5.5 ± 6.6
same,"UPDRS Part IV score, change from baseline to week 12",[2],−0.5 ± 1.6
same,"CGI-I Minimally improved, % of patients",40 mg/day,(32.5) %
same,"CGI-I Minimally improved, number of patients",40 mg/day,80 number of patients
same,"CGI-I Minimally worse, % of patients",40 mg/day,(6.5) %
same,"CGI-I Minimally worse, number of patients",40 mg/day,16 number of patients
same,"CGI-I Much improved, % of patients",40 mg/day,(21.5) %
same,"CGI-I Much improved, number of patients",40 mg/day,53 number of patients
same,"CGI-I Much worse, % of patients",40 mg/day,(0.8) %
same,"CGI-I Much worse, number of patients",40 mg/day,2 number of patients
same,"CGI-I No change, % of patients",40 mg/day,(34.1) %
same,"CGI-I No change, number of patients",40 mg/day,84 number of patients
same,"CGI-I Very much improved, % of patients",40 mg/day,(4.5) %
same,"CGI-I Very much improved, number of patients",40 mg/day,11 number of patients
same,"CGI-I Very much worse, % of patients",40 mg/day,(0.0) %
same,"CGI-I Very much worse, number of patients",40 mg/day,0 number of patients
